According to US12295970B2, “Imidazoquinoline compounds and prodrugs thereof” (UNIVERSITY OF KANSAS, priority 2019, dated 2025):
“Also recorded” adds a separate entry of the source.

Experiment: Depot effect: ear inflammation test in healthy rabbits
Format: in vivo, New Zealand White rabbits
Conditions: s.c. into rabbit ear
Method: It was observed that a local injection of the R848-Toco/HA-Toco nano-emulsion forms a depot at the site of injection and releases the loaded agonist in a sustained fashion, producing prolonged and localized immune stimulation while minimizing systemic off-target effects. To test the localization effect, an ear inflammation test was conducted in healthy rabbits. R848-Toco/HA-Toco and unformulated R848 were injected subcutaneously into opposing rabbit ears of subjects, and local inflammation and systemic TNF-α responses were observed.
New Zealand White rabbits (3-4 kg) were anaesthetized using 5% isoflurane and injected subcutaneously with 2.5 mg of R848 in 250 μl of vehicle into the ipsilateral ear. R848-Toco/HA-Toco was formulated as described above, and the R848 parent compound was formulated in 0.5% polysorbate 80 (w/v) in water. For histopathology, punch biopsies were taken 24 hours post injection, fixed in formalin, and analyzed by a board-certified veterinary pathologist (Kansas State Veterinary Hospital, […], KS, USA). In separate animals, blood samples were taken pre-injection and at 0.5, 1, 2, 5, and 24 h post-injection time points from the contra-lateral ear (marginal vein, 22 ga). Whole blood was centrifuged at 1500×g for 5 min and the serum were collected for cytokine evaluation. All samples and controls were prepared, and serum cytokine levels were measured.

CCOCc1nc2c(N)nc3ccccc3c2n1CC(C)(C)O [Compound 2, resiquimod, reference compound]
local response at the injection site (2.5 mg of R848 in 250 μl): minimum change; also recorded: no local reaction
plasma TNF-α levels (0.5-24 h post-injection, n=4): significant elevation
